Here are results for nine compounds from PubChem BioAssay (NCI).

Values joined by “and” are separate entries in the source; they are usually repeats but may differ in a detail not shown here. Identical values can stand only once.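 Dose response: 5 concentrations. Exposure: 48 h. Format: 96-well plates. Endpoint: linear interpolation; highest concentration if not reached. Abbreviation: GI50, concentration required for 50% inhibition of growth. TGI denotes the concentration required for complete inhibition of growth.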 Where only a bound is given, the exact number is not on record here.

Test systems include BT-549 breast; CCRF-CEM leukemia; COLO 205 colon; HCC-2998 colon; HL-60(TB) leukemia; HS 578T breast; RXF 393 renal; SF-539 CNS; SNB-19 CNS; A549 NSCLC.
Experiment in all cases: NCI-60 cell line screen, 48 h

As to `NC(=O)/C=C/NC(=O)/C=N\O`, the TGI with BT-549 breast, in the assay with CCRF-CEM leukemia, with COLO 205 colon, in the assay on HCC-2998 colon, with HL-60(TB) leukemia and in the assay with HS 578T breast was > 100 µM throughout. Moreover, the TGI in the assay on RXF 393 renal, in the assay with SF-539 CNS and in the assay with SNB-19 CNS was > 100 µM each time.

In the case of `COc1ccc(C(=O)/C=C/c2ccc(OCC(=O)N3CCN(c4ccccc4)CC3)cc2)cc1`, the TGI with A549 NSCLC is > 100 µM; with BT-549 breast it was > 77.3 µM; with CCRF-CEM leukemia, > 100 µM; in the assay with COLO 205 colon, > 75.2 µM; in the assay on HCC-2998 colon, > 100 µM; with HL-60(TB) leukemia, > 67.3 µM. In addition, the TGI with HS 578T breast was > 76.5 µM; in the assay on RXF 393 renal, 74 µM; in the assay on SF-539 CNS, 51.7 µM; with SNB-19 CNS it was 65.1 µM.

As to `COc1cnc2c(c1)C(=O)c1c-2n(CCCN2CCCC2)c(=O)c2cc(F)ccc12`, the GI50 was 0.0936 µM in the assay on A549 NSCLC; 850 nM with BT-549 breast; 199 nM with CCRF-CEM leukemia; 109 nM in the assay on COLO 205 colon; 2.65 µM in the assay with HCC-2998 colon; 311 nM in the assay on HL-60(TB) leukemia. The GI50 with HS 578T breast was 1690 nM; in the assay on RXF 393 renal, 0.36 µM; with SF-539 CNS, 360 nM; with SNB-19 CNS, 240 nM. In addition, the TGI in the assay with A549 NSCLC came to 0.351 µM; with BT-549 breast, 6.43 µM; in the assay on CCRF-CEM leukemia, 2.82 µM; in the assay on COLO 205 colon, 2.64 µM; with HCC-2998 colon, 20.7 µM; in the assay with HL-60(TB) leukemia, 1.13 µM. Also, the TGI in the assay with HS 578T breast was found to be 13.5 µM; with RXF 393 renal, 1.53 µM; with SF-539 CNS, 1.48 µM; in the assay with SNB-19 CNS, 2.74 µM.

`COc1cc2nc3cc([N+](=O)[O-])ccc3c(NCCCNCC(C)(C)O)c2cc1OC`: the GI50 is 0.32 µM in the assay with A549 NSCLC; 1750 nM in the assay on BT-549 breast; 502 nM in the assay with CCRF-CEM leukemia; 176 nM in the assay with COLO 205 colon; 0.233 µM in the assay with HCC-2998 colon; 694 nM in the assay with HL-60(TB) leukemia. The GI50 in the assay on HS 578T breast was 511 nM; in the assay with RXF 393 renal it was 0.297 µM; with SF-539 CNS it was 505 nM; with SNB-19 CNS it was 303 nM. Moreover, the TGI in the assay on A549 NSCLC is 1.17 µM; in the assay with BT-549 breast, 3.32 µM; in the assay on CCRF-CEM leukemia, 3.98 µM; in the assay with COLO 205 colon, 0.442 µM; with HCC-2998 colon it was 0.62 µM; in the assay with HL-60(TB) leukemia, 2.95 µM. The TGI in the assay on HS 578T breast turned out to be 5.39 µM; with RXF 393 renal, 1.24 µM; in the assay on SF-539 CNS, 2.58 µM; in the assay with SNB-19 CNS, 1.41 µM.

In the case of `O=C(O)c1ccc2c(c1)nc(Nc1cccc(Cl)c1)c1ccncc12`, the GI50 with A549 NSCLC is 7.23 µM and 6.64 µM; in the assay with BT-549 breast, 2480 nM and 2290 nM; in the assay with CCRF-CEM leukemia, 2250 nM and 1850 nM; with COLO 205 colon it was 4210 nM and 3670 nM; in the assay on HCC-2998 colon it was 2.53 µM and 4.02 µM; with HL-60(TB) leukemia it was 2880 nM and 4980 nM. The GI50 with HS 578T breast is 435 nM and 1170 nM; in the assay with RXF 393 renal, 3.23 µM and 4.17 µM; in the assay on SF-539 CNS, 2050 nM and 1580 nM; in the assay on SNB-19 CNS, 3040 nM and 3460 nM. Also, the TGI with A549 NSCLC is 27.4 µM and > 10 µM; in the assay with BT-549 breast, 10.9 µM and 8.33 µM; in the assay on CCRF-CEM leukemia, 8.55 µM and 7.01 µM; with COLO 205 colon it was 15.1 µM and > 10 µM; with HCC-2998 colon, 15.1 µM and > 10 µM; with HL-60(TB) leukemia, 7.67 µM and > 10 µM. For the same compound, the TGI was 3.88 µM and 6.21 µM in the assay with HS 578T breast; 13 µM and > 10 µM with RXF 393 renal; 8.45 µM and 6.12 µM with SF-539 CNS; > 100 µM with SNB-19 CNS.

With `O=C(CCCCCCSc1nc(-c2ccc(Cl)cc2)cc(-c2ccc(Cl)cc2)n1)NO`, the GI50 with A549 NSCLC is 1.42 µM; in the assay with BT-549 breast, 1920 nM; in the assay with CCRF-CEM leukemia, 1250 nM; in the assay on COLO 205 colon, 1550 nM; with HCC-2998 colon it was 4.64 µM; in the assay on HL-60(TB) leukemia, 1970 nM. Moreover, the GI50 is 3230 nM in the assay on HS 578T breast, 1.07 µM in the assay with RXF 393 renal, 1530 nM with SF-539 CNS and 1970 nM in the assay with SNB-19 CNS. In addition, the TGI is 5.1 µM in the assay with A549 NSCLC; 36.2 µM in the assay on BT-549 breast; > 50 µM in the assay with CCRF-CEM leukemia; 8.04 µM in the assay with COLO 205 colon; 17 µM with HCC-2998 colon; > 50 µM in the assay on HL-60(TB) leukemia. For the same compound, the TGI in the assay on HS 578T breast was > 50 µM; with RXF 393 renal, 2.83 µM; in the assay on SF-539 CNS, 5.57 µM; in the assay on SNB-19 CNS, 20.4 µM.

Turning to `CCc1nc(N)nc(N)c1-c1ccc(NCCc2ccccc2)c([N+](=O)[O-])c1`, the TGI in the assay with A549 NSCLC is 21.8 µM; in the assay with BT-549 breast, 42.9 µM; with CCRF-CEM leukemia it was > 61.2 µM; in the assay on COLO 205 colon, 16.9 µM; in the assay on HCC-2998 colon, 11.3 µM; in the assay with HL-60(TB) leukemia it was 6.77 µM. Further, the TGI with HS 578T breast is > 75.4 µM; in the assay on RXF 393 renal, 40.7 µM; in the assay on SF-539 CNS, 18 µM; in the assay with SNB-19 CNS, > 63.1 µM.

Regarding `O=C(c1ccccc1)c1nc2ccc(C(F)(F)F)cc2[n+]([O-])c1C(F)(F)F`, the GI50 was 26 µM in the assay with A549 NSCLC; 31500 nM with BT-549 breast; 27000 nM in the assay with CCRF-CEM leukemia; 26800 nM in the assay with COLO 205 colon; 30.1 µM in the assay on HCC-2998 colon; 19000 nM in the assay with HL-60(TB) leukemia. The GI50 in the assay on HS 578T breast was 52600 nM; in the assay on RXF 393 renal, 31.8 µM; in the assay with SF-539 CNS it was 51100 nM; in the assay with SNB-19 CNS, 71500 nM. The TGI in the assay on A549 NSCLC is > 100 µM; with BT-549 breast, > 100 µM; in the assay with CCRF-CEM leukemia, > 100 µM; in the assay on COLO 205 colon it was > 100 µM; with HCC-2998 colon, > 100 µM; with HL-60(TB) leukemia, 52.5 µM. Further, the TGI in the assay with HS 578T breast, with RXF 393 renal, with SF-539 CNS and with SNB-19 CNS was > 100 µM throughout.

As for `Cc1ccc(S(=O)(=O)Cc2nc(-c3ccc(C(=O)NCc4cccnc4)cc3)oc2C)cc1`, the GI50 with A549 NSCLC is > 21.5 µM; in the assay on BT-549 breast, 3370 nM; in the assay with CCRF-CEM leukemia it was 10.3 nM; in the assay with COLO 205 colon, 492 nM; with HCC-2998 colon it was 18.4 µM; in the assay on HL-60(TB) leukemia, 1970 nM. For the same compound, the GI50 was 7900 nM in the assay on HS 578T breast, 27.6 µM in the assay on RXF 393 renal, < 10 nM in the assay with SF-539 CNS and 86.9 nM in the assay on SNB-19 CNS. The TGI with A549 NSCLC, in the assay with BT-549 breast, in the assay with CCRF-CEM leukemia, in the assay with COLO 205 colon, in the assay with HCC-2998 colon and in the assay with HL-60(TB) leukemia was > 100 µM each time. Also, the TGI in the assay with HS 578T breast is > 100 µM; in the assay with RXF 393 renal, > 100 µM; in the assay on SF-539 CNS, > 35.5 µM; with SNB-19 CNS, > 100 µM.
